From patent US6620828B2, “Thiazole compounds and pharmaceutical compositions for inhibiting protein kinases and methods for their use” (Agouron Pharmaceuticals, Inc., priority 1999, dated 2003)
Several values for one entry are separate records, joined by “and”; a condition that tells them apart may be missing. Equal values may be shown once. Read-outs that look alike come from different tables or passages of the source. One block for each compound: values may come before it.

What was measured:
[1] = molecular target: T1, CDK4/Cyclin D3 complex (Homo sapiens, UniProt P11802); assay: CDK4/Cyclin D assay; type: biochemical; conditions: Table 2
T1 construct: made in house; host or cells: insect cells co-infected with baculovirus vectors
T1 sequence (P11802 whole entry): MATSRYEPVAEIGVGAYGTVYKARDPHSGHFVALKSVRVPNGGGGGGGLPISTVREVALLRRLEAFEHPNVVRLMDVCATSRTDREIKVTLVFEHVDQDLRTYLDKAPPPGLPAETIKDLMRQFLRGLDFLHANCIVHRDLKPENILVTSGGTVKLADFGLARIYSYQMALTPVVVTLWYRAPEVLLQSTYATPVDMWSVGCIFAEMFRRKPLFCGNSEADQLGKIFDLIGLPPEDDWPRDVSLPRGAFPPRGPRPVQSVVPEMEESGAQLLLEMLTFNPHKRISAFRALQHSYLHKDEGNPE
T1 sequence (P30281 whole entry partner): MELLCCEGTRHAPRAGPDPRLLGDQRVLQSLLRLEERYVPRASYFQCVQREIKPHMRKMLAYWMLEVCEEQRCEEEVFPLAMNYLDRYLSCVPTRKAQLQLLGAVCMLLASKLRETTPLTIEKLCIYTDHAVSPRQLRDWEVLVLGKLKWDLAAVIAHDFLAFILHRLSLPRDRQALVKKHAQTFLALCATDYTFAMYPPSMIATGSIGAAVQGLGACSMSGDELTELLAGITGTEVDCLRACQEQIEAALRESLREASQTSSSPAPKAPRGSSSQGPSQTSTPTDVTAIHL
Outline: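 Insect-cell-expressed CDK4/cyclin D3 (50 nM) phosphorylating His-tagged Rb fragment (residues 386-928) with 25 μM [^32P]ATP in HEPES pH 7.4, MgCl2, 2% DMSO; 20 min at 30 °C, EDTA stop. Filter-captured 32P by phosphorimager; apparent Ki from competitive or tight-binding inhibition fits.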

[2] = molecular target: CDK2/Cyclin A complex (Homo sapiens, UniProt P24941); assay: CDK2/Cyclin A assay; type: biochemical; conditions: Table 2
Outline: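 Radiometric assay: 150 nM CDK2/cyclin A (insect-cell CDK2, truncated cyclin A) phosphorylates His-tagged Rb fragment (residues 386-928) with 25 μM ATP plus [32P]ATP, pH 7.4 HEPES, 2% DMSO, 30 °C for 20 min. Filter-captured product counted by phosphorimager; apparent Ki from competitive or tight-binding inhibition fits.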

[3] = molecular target: T2, phosphorylated VEGF-R2Δ50 (Homo sapiens, UniProt P35968, DEL940-989/E990V); assay: VEGF-R2 ELISA assay; type: biochemical; conditions: Table 2; * determined with ELISA assay; read-out: FLVK-P Ki
T2 construct: VEGF-R2Δ50 contains residues 806-939 and 990-1171; made in house; host or cells: baculovirus/insect cells
T2 sequence (P35968 with tags, fused parts or gaps DEL940-989/E990V limits assumed): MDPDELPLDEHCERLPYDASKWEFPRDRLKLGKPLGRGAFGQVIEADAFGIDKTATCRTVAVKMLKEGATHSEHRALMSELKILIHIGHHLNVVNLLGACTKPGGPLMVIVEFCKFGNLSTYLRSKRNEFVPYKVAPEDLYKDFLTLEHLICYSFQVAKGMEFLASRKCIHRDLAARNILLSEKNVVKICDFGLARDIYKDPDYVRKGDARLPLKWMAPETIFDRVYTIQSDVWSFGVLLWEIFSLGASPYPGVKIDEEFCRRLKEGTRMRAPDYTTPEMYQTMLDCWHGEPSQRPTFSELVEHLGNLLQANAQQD
Outline: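 Pre-autophosphorylated human VEGF-R2Δ50 (residues 806-939/990-1171, E990V; baculovirus) at 0.8 nM was run with 2 μM biotin-gastrin(1-17), 20 μM ATP, 26 mM MgCl2, 2 mM MnCl2, pH 7.5 Hepes. Phosphopeptide was captured on streptavidin and detected by anti-pTyr-HRP/ABTS at 405 nm; Ki came from activity at varying compound concentrations.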

[4] = molecular target: T3, FAKcd409 (Homo sapiens, UniProt Q05397, P410T); assay: FAK HTS assay; type: biochemical; conditions: 10 uM compound, HTS Delphia assay
T3 construct: comprises residues methionine 409 to glutamate 689; made in house; host or cells: baculovirus vector expression system
T3 sequence (Q05397 409-689 P410T): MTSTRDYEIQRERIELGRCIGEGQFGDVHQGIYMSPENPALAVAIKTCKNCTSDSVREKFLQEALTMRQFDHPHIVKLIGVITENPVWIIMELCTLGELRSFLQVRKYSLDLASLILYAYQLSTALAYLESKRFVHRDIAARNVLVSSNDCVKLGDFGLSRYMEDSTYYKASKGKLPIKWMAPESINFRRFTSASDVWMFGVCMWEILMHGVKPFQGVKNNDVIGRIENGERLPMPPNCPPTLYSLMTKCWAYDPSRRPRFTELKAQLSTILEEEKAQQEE

[5] = molecular target: T4, LCK tyrosine kinase (Homo sapiens, UniProt P06239, C224D/P223M); assay: LCK spectrophotometric assay; type: biochemical; conditions: for Ki: Table 3, first value of cells with two values
T4 construct: starting from amino acid residue 223 to the end of the protein at residue 509; made in house; host or cells: insect cells
T4 sequence (P06239 223-509 P223M/C224D): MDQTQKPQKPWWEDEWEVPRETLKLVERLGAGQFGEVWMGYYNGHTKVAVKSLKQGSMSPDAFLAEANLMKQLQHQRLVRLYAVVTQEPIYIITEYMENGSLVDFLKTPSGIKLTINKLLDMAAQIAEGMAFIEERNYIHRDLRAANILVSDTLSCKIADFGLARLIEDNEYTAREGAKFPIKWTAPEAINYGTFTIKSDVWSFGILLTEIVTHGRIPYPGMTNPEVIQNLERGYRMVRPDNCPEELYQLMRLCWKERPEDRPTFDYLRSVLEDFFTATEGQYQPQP
Experimental: LCK Construct for Assay: The LCK tyrosine kinase was expressed in insect cells as an N-terminal deletion starting from amino acid residue 223 to the end of the protein at residue 509, with the following two amino acid substitutions at the N-terminus: […] and C224D.
The spectrophotometric assay was carried out as described above for VEGF-R2, except for the following changes in concentration: LCK=60 nM, MgCl2=0 mM, poly(E4Y1)=20 mM.

[6] = molecular target: T5, unphosphorylated VEGF-R2Δ50 (FLVK) (Homo sapiens, UniProt P35968, DEL940-989/E990V); assay: VEGF-R2 coupled spectrophotometric assay, unphosphorylated enzyme (FLVK); type: biochemical
T5 construct: VEGF-R2Δ50 contains residues 806-939 and 990-1171; made in house; host or cells: baculovirus/insect cells
T5 sequence (P35968 with tags, fused parts or gaps DEL940-989/E990V limits assumed): as the sequence (P35968 with tags, fused parts or gaps DEL940-989/E990V limits assumed) above
Outline: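 Unphosphorylated VEGF-R2Δ50 (5 to 40 nM) with 20 mM poly(E4Y1), 3 mM ATP, 60 mM MgCl2, 2 mM MnCl2 in 200 mM Hepes pH 7.5. ADP production coupled via PK/LDH to NADH oxidation, read at 340 nm. Ki from activity at varying compound concentrations.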

[7] = tested on: human umbilical vein endothelial cells (HUVEC); assay: HUVEC proliferation assay; type: cell-based; conditions: Homo sapiens, HUVEC
Outline: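 Readout was MTT dye reduction (A595) after 72 h of stimulation with VEGF at 6 ng/ml final. Compound, in 0.1% DMSO final, was added 1 h before VEGF to HUVEC starved 24 h in 1% FBS. % inhibition was scaled between VEGF-alone and unstimulated wells; IC50 was fitted from triplicate dose curves.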

[8] = molecular target: T6, phosphorylated VEGF-R2Δ50 (FLVK-P) (Homo sapiens, UniProt P35968, DEL940-989/E990V); assay: VEGF-R2 coupled spectrophotometric (FLVK-P) assay; type: biochemical; conditions: spectrophotometric assay
T6 construct: VEGF-R2Δ50 contains residues 806-939 and 990-1171; made in house; host or cells: baculovirus/insect cells
T6 sequence (P35968 with tags, fused parts or gaps DEL940-989/E990V limits assumed): as above
Outline: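 Baculovirus-expressed human VEGF-R2Δ50 (residues 806-939/990-1171, E990V) was autophosphorylated with 3 mM ATP, 40 mM MgCl2 for 2 h at 4° C. ADP formation was coupled via PK/LDH to NADH oxidation, read at 340 nm, with 5.1 mM poly(E4Y1), 1 mM ATP, 25 mM MgCl2, Hepes pH 7.5. Ki came from activity across compound concentrations.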

[9] = tested on: lung cancer cells (line MV522); assay: Cancer cell proliferation (MV522) assay; type: cell-based
[10] = molecular target: T7, FL-CHK1 (Homo sapiens, UniProt O14757); assay: CHK1 assay; type: biochemical; conditions: Table 2; read-out: CHK-1 Ki
T7 construct: C-terminally His-tagged full-length human CHK1 (FL-CHK1); 6xHis (C); made in house; host or cells: baculovirus/insect cells
T7 sequence (O14757 1-476): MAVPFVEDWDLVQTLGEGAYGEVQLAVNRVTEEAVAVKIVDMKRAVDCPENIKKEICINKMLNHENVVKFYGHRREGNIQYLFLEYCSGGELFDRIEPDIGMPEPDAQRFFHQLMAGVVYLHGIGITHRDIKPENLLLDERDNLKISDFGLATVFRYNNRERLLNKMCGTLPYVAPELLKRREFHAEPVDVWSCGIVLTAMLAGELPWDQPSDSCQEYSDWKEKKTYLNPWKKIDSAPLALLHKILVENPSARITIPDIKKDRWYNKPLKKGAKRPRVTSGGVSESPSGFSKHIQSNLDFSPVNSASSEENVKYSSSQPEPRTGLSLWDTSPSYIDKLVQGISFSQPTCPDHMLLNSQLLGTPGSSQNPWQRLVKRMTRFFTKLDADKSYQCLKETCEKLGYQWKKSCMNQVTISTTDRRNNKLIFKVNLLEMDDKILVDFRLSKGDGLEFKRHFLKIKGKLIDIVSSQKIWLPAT
Outline: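 Full-length human CHK1 with C-terminal 6×His tag, made in baculovirus/insect cells, 10 nM, phosphorylating 0.125 mM Syntide-2 with 0.15 mM ATP in 50 mM Tris pH 7.5, 25 mM MgCl2, 400 mM NaCl. PK/LDH-coupled NADH oxidation read at 340 nm. Ki from initial rates over varied compound concentrations.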

[11] = molecular target: T8, CHK1 (Homo sapiens, UniProt O14757); assay: CHK1 high-throughput screening; type: biochemical; conditions: for inhibition at 20 µM: read-out: % inhibition @ 20 μM, Table 4, repeated entries per example; for % inhibition @ 20 μM: Table 4, repeated entries per example
T8 sequence (O14757 1-476): T7 sequence (O14757 1-476)

[12] = molecular target: T9, FGF-R1 (Homo sapiens, UniProt P11362, C488A/C584S/L457V); assay: FGF-R spectrophotometric assay; type: biochemical; conditions: for inhibition at 1 µM: Table 3, % inh @ 1 uM, read-out: FGF-P Ki (nM) (% inh @ 1 uM); for FGF-R % inhibition @ 5: at 5 (head μM)
T9 construct: starting from the endogenous methionine residue 456 to glutamate 766; made in house; host or cells: baculovirus vector expression system
T9 sequence (P11362 456-766 L457V/C488A/C584S): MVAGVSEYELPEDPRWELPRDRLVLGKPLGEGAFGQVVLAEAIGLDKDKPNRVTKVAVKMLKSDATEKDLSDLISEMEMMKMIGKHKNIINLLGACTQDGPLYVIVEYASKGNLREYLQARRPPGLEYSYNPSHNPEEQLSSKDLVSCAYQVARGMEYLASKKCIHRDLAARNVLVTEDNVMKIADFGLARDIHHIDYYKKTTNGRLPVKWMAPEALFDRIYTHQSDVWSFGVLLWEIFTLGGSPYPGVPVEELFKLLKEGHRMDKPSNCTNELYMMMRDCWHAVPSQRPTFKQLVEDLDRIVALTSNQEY
Outline: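 Kinase domain (Met456–Glu766, baculovirus-expressed) used at 50 nM in a spectrophotometric assay run as for VEGF-R2. Substrates were 2 mM ATP and 15 mM poly(E4Y1).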

[13] = molecular target: T4, LCK tyrosine kinase; assay: LCK spectrophotometric assay; type: biochemical; conditions: Table 3, read-out: LCK (% inh @ 1 uM)

inhibition at 100 µM ([1]; at 100 (printed 100 or 100 μM)): < 0%
CDK2 % inhibition @ 100 ([2]; at 100 (printed 100 or 100 μM)): 29% @
Ki [3]: 1900 nM
melting point: 180 to 183 °C (dec.)
% inhibition of FAK ([4]; 10 µM): −6% and −5% and 4%
Compound: COc1cc(Nc2nc(N)c(-c3nc(-c4ccc(F)cc4F)cs3)s2)cc(OC)c1OC [A(9), 4-(2,4-Difluoro-phenyl)-N^2′-(3,4,5-trimethoxy-phenyl)-[2,5′]bithiazolyl-2′,4′-diamine]

inhibition at 1 µM ([5]; Table 1, 1 μM): 12%
Ki ([6]; Table 1): 9.6 nM
Ki ([8]; Table 1): 7.8 nM
IC50 ([9]; MV522, Table 1): > 10000 nM
Compound: CC(=O)Nc1nc(N)c(-c2nc(-c3cccc(NC(=O)c4ccccc4)c3)cs2)s1 [F(9), N-[3-(2′-Acetylamino-4′-amino-[2,5′]bithiazolyl-4-yl)-phenyl]benzamide]
IC50 ([7]; Table 1): 21 nM

Ki [10]: 290 nM
inhibition at 20 µM [11]: 19.7%
Ki [3]: 100 nM
melting point: 208 to 212 °C (dec.)
% inhibition of FAK ([4]; 10 µM): 60% and 47% and 57% and 90% and 88%
Compound: COc1cc(Nc2nc(N)c(-c3nc(-c4cc(O)ccc4O)cs3)s2)cc(OC)c1OC [A(25), 2-(4′-Amino-2′-(3,4,5-trimethoxy-phenylamino)-[2,5′]bithiazolyl-4-yl]-benzene-1,4-diol]

Ki [5]: 1.1 nM
inhibition at 1 µM [12]: 64%
inhibition at 1 µM [13]: 97%
Compound: COc1cc(Nc2nc(N)c(-c3nc(-c4cc(NC(=O)c5cccc(Cl)c5)ccc4C)no3)s2)cc(OC)c1OC [D(75), 3-[3-[(3-chlorobenzoyl)amino]-6-methyl-phenyl]-5-[2-[(3,4,5-trimethoxyphenyl)amino]-4-amino-5-thiazolyl]-1,2,4-oxadiazole]
IC50 ([7]; Table 3): 7.8 nM

Ki [1]: 7800 nM
Ki [2]: 2700 nM
% inhibition @ 20 μM [11]: −4.1% and −1.2%
Ki [3]: 25000 nM
melting point: 130 to 135 °C (dec.)
% inhibition of FAK ([4]; 10 µM): −9% and −7% and 0%
Compound: Cc1nc(-c2sc(Nc3ccc(S(N)(=O)=O)cc3)nc2N)sc1Cc1ccc(F)cc1 [A(15), 4-[4′-Amino-5-(4-fluoro-benzyl)-4-methyl-[2,5′]bithiazolyl-2′-ylamino]-benzenesulfonamide]

FGF-R % inhibition @ 5 ([12]; Table 2): 52% @
inhibition at 20 µM [11]: 42.5%
Ki ([8]; Table 2): 14 nM
melting point: 214 to 216 °C
% inhibition of FAK [4]: 72%
IC50 ([9]; MV522, Table 2): 7500 nM
Compound: COc1cc(Nc2nc(N)c(-c3nc(-c4cc(O)ccc4Br)cs3)s2)cc(OC)c1OC [A(26), 3-[4′-Amino-2′-(3,4,5-trimethoxy-phenylamino)-[2,5′]bithiazolyl-4-yl]-4-bromophenol]
IC50 ([7]; Table 2): > 1000 nM

Ki [5]: 3.2 nM
inhibition at 1 µM [12]: 84%
Ki ([6]; Table 3, some entries 'Slow binder'): 1.4 nM
inhibition at 1 µM [13]: 94%
IC50 ([9]; MV522, Table 3): 2000 nM
Compound: COc1cc(Nc2nc(N)c(-c3nc(-c4cc(NC(=O)c5cccc(Cl)c5)ccc4Cl)no3)s2)cc(OC)c1OC [D(64)]
IC50 ([7]; Table 3): 10 to 100 nM

Ki [1]: 9100 nM
FGF-R % inhibition @ 5 ([12]; Table 2): 45% @
Ki [2]: 13400 nM
Ki ([8]; Table 2): 28 nM
melting point: 129 to 133 °C (dec.)
% inhibition of FAK ([4]; 10 µM): −2% and −5% and −4%
Compound: COc1cc(Nc2nc(N)c(-c3nc(-c4ccc(O)cc4)cs3)s2)cc(OC)c1OC [A(10), 4-[4′-Amino-2′-(3,4,5-trimethoxy-phenylamino)-[2,5′]bithiazolyl-4-yl]-phenol]

Ki [1]: 4400 nM
Ki [2]: 530 nM
% inhibition @ 20 μM [11]: 12.2%
inhibition at 20 µM [11]: 7.4%
melting point: 200 to 202 °C
inhibition at 10 µM [4]: 7%
% inhibition of FAK ([4]; 10 µM): 6%
Compound: C=CCOc1cc(O)cc(-c2csc(-c3sc(Nc4ccc(S(N)(=O)=O)cc4)nc3N)n2)c1 [A(62), 4-[4-(3-Allyloxy-5-hydroxyphenyl)-4′-amino-[2,5′]bithiazolyl-2′-ylamino]-benzenesulfonamide]

FGF-R % inhibition @ 5 ([12]; Table 2): 38% @
inhibition at 20 µM [11]: 60.8%
melting point: 198 to 202 °C
inhibition at 10 µM [4]: 25%
% inhibition of FAK ([4]; 10 µM): 32% and 29%
Compound: COc1cc(Nc2nc(N)c(-c3nc(-c4cc(O)cc(O)c4)cs3)s2)cc(OC)c1OC [A(18), 5-[4′-Amino-2′-(3,4,5-trimethoxy-phenylamino)-[2,5′]bithiazolyl-4-yl]-benzene-1,3-diol]

Ki [1]: 2700 nM
Ki ([12]; Table 2): 190000 nM
Ki [2]: 6700 nM
Ki ([8]; Table 2): 34 nM
melting point: 132 to 137 °C (dec.)
% inhibition of FAK [4]: −16%
Compound: COc1cc(Nc2nc(N)c(-c3nc(-c4ccc(O)c(O)c4)cs3)s2)cc(OC)c1OC [A(12), 4-[4′-Amino-2′-(3,4,5-trimethoxy-phenylamino)-[2,5′]bithiazolyl-4-yl]-benzene-1,2-diol]

Ki [1]: 8400 nM
Ki [2]: 2500 nM
% inhibition @ 20 μM [11]: 2.8% and −1.9%
Ki [3]: 64000 nM
melting point: 231 to 235 °C (dec.)
% inhibition of FAK [4]: −9%
Compound: COc1ccccc1-c1csc(-c2sc(Nc3ccc(S(N)(=O)=O)cc3)nc2N)n1 [A(3), 4-[4′-Amino-4-(2-methoxy-phenyl)-[2,5′]bithiazolyl-2′-ylamino]-benzenesulfonamide]
